Results as given in PubChem BioAssay AID2060906 (Molecular Pharmacology Branch, DTP, NCI, 2025).

Test system: 485176-168-R4-J1-PDC complex spheroid growth
Assay: Anticancer human tumor 485176-168-R4-J1-PDC patient-derived pancreatic adenocarcinoma cell line growth inhibition [RAS]
Settings: for viability, T/C: stronger effect = lower value
Excerpt: RAS pathway inhibitors in Combinations in Complex Spheroids
A high-throughput screen of multi-cell type tumor spheroids was designed to identify active combinations of RAS pathway inhibitors and targeted small molecules. Complex spheroids include a stromal component modeled by human endothelial cells (HUVEC) and fibroblasts modeled by human mesenchymal stem cells (MSCs). The concentration ranges selected for each drug and investigational agent were based upon clinically achievable concentrations if the clinical Cmax of the agent was known.
Compounds. The drugs and investigational agents: abemaciclib (NSC768073), cobimetinib (NSC768068), divarasib (GDC6063, NSC841802), docetaxel (NSC628503), GDC-1971 (RLY-1971, NSC841576), gemcitabine (NSC613327), inavolisib (NSC800729), ipatasertib (NSC767898), KB-0742 (NSC834161), MRTX-1133 (NSC836407), osimertinib (NSC779217), RMC-4630 (NSC839698), RMC-6236 (NSC851965), RMC-6291 (NSC852671), Ro-3306 (NSC812927), sapanisertib (NSC764658), SN-38 (NSC673596), staurosporine (NSC755774), SY5609 (NSC837396), and tovorafenib (DAY101, NSC766906), were obtained from the National Cancer Institute (NCI) Developmental Therapeutics Program Chemical Repository. The FDA-approved anticancer drug set is available from the NCI Developmental Therapeutics Program. […] The stock solutions were prepared in dimethyl sulfoxide (DMSO, Sigma-Aldrich, St. Louis, MO, cat. D2650) at 800-fold the tested concentration and stored at -70 degrees C prior to their use. All drugs and investigational agents were tested over a range starting from a high concentration at or near the clinical Cmax and decreasing in half-log increments. If the clinical Cmax for an agent had not been determined, the highest concentration tested was 10 microM.
Cell Culture. All cells were maintained in an incubator at 37 degrees C and 5% CO2 with 95% humidity. The PDC lines were cultured according to standard operating procedures established by the NCI PDMR. All PDCs were thawed and cultured in Matrigel-coated flasks prepared with a working solution of 1X Ham's F-12 nutrient mix, without supplementation (Invitrogen, Waltham, MA, cat. 11765054), 100 U/mL penicillin-streptomycin (Invitrogen, cat. 15140122), and 2.5% Matrigel (Corning Inc., Corning, NY, cat. 354248) for the first three passages. The 362531-283-R-J2-PDC and 782815-120-R-J1-PDC lines were cultured in 6C/Colon 1B media, which includes advanced DMEM/F-12 (Thermo Fisher Scientific, cat. 12634028), 10 mM HEPES (Thermo Fisher Scientific, cat. 15630080), 1X GlutaMAX supplement (Thermo Fisher Scientific, cat. 35050061), 0.1 mg/mL primocin (InvivoGen, San Diego, CA, cat. ant-pm-2), 10% defined fetal bovine serum, heat inactivated (HyClone Laboratories Inc., Logan, UT, cat. SH30070.03HI), 50% L-WRN conditioned media (ATCC, cat. CRL-3276), 1.25 mM N-Acetyl-L-cysteine (Sigma-Aldrich, cat. A9165), 10 mM nicotinamide (Sigma-Aldrich, cat. N0636), 1X B-27 supplement (Thermo Fisher Scientific, cat. 17504044), 1X N-2 supplement (Thermo Fisher Scientific, cat. 17502048), 50 ng/mL human EGF (Thermo Fisher Scientific, cat. PHG0311), and 10 microM Y-27632 dihydrochloride (Tocris Bioscience, cat. 1254). The K12877-001-R-J1-PDC line was cultured in 6I media, which includes all 6C/Colon 1B media plus 10 ng/mL human FGF-10 (PeproTech, cat. 100-26), 1 ng/mL human FGF-2 (PeproTech, cat. 100-18B), 1 µM prostaglandin E2 (Tocris Bioscience, cat. 2296), […] hydrocortisone (Sigma-Aldrich, cat. H4001), and […] bovine insulin (Sigma-Aldrich, cat. I6634). The K86415-001-R-J1-PDC line was cultured in 6D media, which includes all 6C/Colon 1B media components minus the L-WRN conditioned media. The 485176-168-R4-J1-PDC was cultured in PANC media, which includes all 6C/Colon 1B media plus 100 ng/mL human FGF-10 (PeproTech, cat. 100-26), 500 nM SB-431542 (Selleckchem, cat. S1067), and 10 nM gastrin (Tocris Bioscience, cat. 3006). […]
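Note: spheroids exposed to compounds for seven days before readout.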
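Throughout, for viability, T/C: luminescence viability expressed relative to DMSO vehicle wells set as 100%.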

`CC(C)NCC(C(=O)N1CCN(c2ncnc3c2C(C)CC3O)CC1)c1ccc(Cl)cc1` (stereo not drawn) + C=CC(=O)N1CCN(c2nc(OCC3CCCN3C)nc3c(F)c(-c4nc(N)cc(C)c4C(F)(F)F)c(Cl)cc23)C(C)C1 showed an IC50 (curve of first compound, second compound 0.00316 µM) of 1690 nM, an IC50 (curve of first compound, second compound 0.01 µM) of 2420 nM and an IC50 (curve of first compound, second compound 0.0316 µM) of 1630 nM. The IC50 (curve of first compound, second compound 0.1 µM) was 1540 nM, the IC50 (curve of first compound, second compound 0.316 µM) was 2370 nM and the IC50 (curve of first compound, second compound 1 µM) was 1340 nM. For the same compound, the viability, T/C (second compound 0.00316 µM, first compound 0.0316 µM) was 93.7%, the viability, T/C (second compound 0.00316 µM, first compound 0.1 µM) was 97.9% and the viability, T/C (second compound 0.00316 µM, first compound 0.316 µM) was 78%. For the same compound, the viability, T/C (second compound 0.00316 µM, first compound 1 µM) was 57.4%, the viability, T/C (second compound 0.00316 µM, first compound 3.16 µM) was 42.8% and the viability, T/C (second compound 0.00316 µM, first compound 10 µM) was 35.3%. The viability, T/C (second compound 0.01 µM, first compound 0.0316 µM) was 104%, the viability, T/C (second compound 0.01 µM, first compound 0.1 µM) was 83.3% and the viability, T/C (second compound 0.01 µM, first compound 0.316 µM) was 79%. It also gave a viability, T/C (second compound 0.01 µM, first compound 1 µM) of 62.4%, a viability, T/C (second compound 0.01 µM, first compound 3.16 µM) of 43.8% and a viability, T/C (second compound 0.01 µM, first compound 10 µM) of 34.2%. The viability, T/C (second compound 0.0316 µM, first compound 0.0316 µM) was 101%, the viability, T/C (second compound 0.0316 µM, first compound 0.1 µM) was 83.5% and the viability, T/C (second compound 0.0316 µM, first compound 0.316 µM) was 70.7%. The viability, T/C (second compound 0.0316 µM, first compound 1 µM) was 53.2%, the viability, T/C (second compound 0.0316 µM, first compound 3.16 µM) was 45.3% and the viability, T/C (second compound 0.0316 µM, first compound 10 µM) was 30.5%. The viability, T/C (second compound 0.1 µM, first compound 0.0316 µM) was 109%, the viability, T/C (second compound 0.1 µM, first compound 0.1 µM) was 82.7% and the viability, T/C (second compound 0.1 µM, first compound 0.316 µM) was 69.2%. It also gave a viability, T/C (second compound 0.1 µM, first compound 1 µM) of 55%, a viability, T/C (second compound 0.1 µM, first compound 3.16 µM) of 45.2% and a viability, T/C (second compound 0.1 µM, first compound 10 µM) of 29.9%. The viability, T/C (second compound 0.316 µM, first compound 0.0316 µM) was 106%, the viability, T/C (second compound 0.316 µM, first compound 0.1 µM) was 102% and the viability, T/C (second compound 0.316 µM, first compound 0.316 µM) was 79.3%. The viability, T/C (second compound 0.316 µM, first compound 1 µM) was 65.2%, the viability, T/C (second compound 0.316 µM, first compound 3.16 µM) was 46.1% and the viability, T/C (second compound 0.316 µM, first compound 10 µM) was 27.3%. For the same compound, the viability, T/C (second compound 1 µM, first compound 0.0316 µM) was 108%, the viability, T/C (second compound 1 µM, first compound 0.1 µM) was 93.9% and the viability, T/C (second compound 1 µM, first compound 0.316 µM) was 79.1%. It also gave a viability, T/C (second compound 1 µM, first compound 1 µM) of 50.5%, a viability, T/C (second compound 1 µM, first compound 3.16 µM) of 41% and a viability, T/C (second compound 1 µM, first compound 10 µM) of 28.9%.

With `NC1c2ccccc2OC12CCN(c1cnc3c(N4CCCc5ncccc54)n[nH]c3n1)CC2` (stereo not drawn) the viability, T/C (compound 0.1 µM) was 79.2% [middle of 4 runs], the viability, T/C (compound 0.316 µM) was 86.1% [middle of 4 runs] and the viability, T/C (compound 1 µM) was 85.1% [middle of 4 runs]. The viability, T/C (compound 3.16 µM) was 84.5% [middle of 4 runs], the viability, T/C (compound 10 µM) was 72.2% [middle of 4 runs] and the IC50 (curve of compound) was over 10000 nM.
